Assay results as given in US9321764B2, “Dihydro-pyrrolopyridinone inhibitors” (AbbVie Inc., priority 2013, dated 2016).

What was measured:
BRD4 (BDI_K57-E168) = target: T1, BRD4 (BDI_K57-E168) (Homo sapiens, UniProt O60885); assay: TR-FRET bromodomain binding assay, first bromodomain of BRD4; conditions: His-tagged BD1, 100 nM Alexa647 probe; TR-FRET protocol A-E given per row
T1 construct: BD1: amino acids K57-E168; made in house
Summary of the method: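 His-tagged BRD4 BD1 (K57-E168), 8 nM, with 1 nM Eu-anti-His antibody and 100 nM Alexa647-labelled BET-inhibitor probe in pH 6.0 phosphate buffer, 2% DMSO. TR-FRET read after 1 h at room temperature. IC50 from 4-parameter fit, converted to Ki using probe Kd and concentration.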

[1] = test system: breast cancer cell line MX-1; assay: MX-1 cell line proliferation assay; type: cell-based; conditions: Homo sapiens, MX1, 72 h, MX-1 cells, 3-day proliferation assay, Cell Titer Glo; read-out: Cellular proliferation EC50
Experimental: The impact of compounds of the Examples on cancer cell proliferation was determined using the breast cancer cell line MX-1 (ATCC) in a 3-day proliferation assay and the data are reported in Table 1. MX-1 cells were maintained in RPMI 1640 medium (Sigma) supplemented with 10% FBS at 37° C. and an atmosphere of 5% CO2. For compound testing, MX-1 cells were plated in 96-well black bottom plates at a density of 5000 cells/well in 90 μL of culture media and incubated at 37° overnight to allow cell adhesion and spreading. Compound dilution series were prepared in DMSO via a 3-fold serial dilution from 3 mM to 0.1 μM. The DMSO dilution series were then diluted 1:100 in phosphate buffered saline, and 10 μL of the resulted solution were added to the appropriate wells of the MX-1 cell plate. The final compound concentrations in the wells were 3, 1, 0.3, 0.1, 0.03, 0.01, 0.003, 0.001, 0.0003 and 0.0001 μM.
Luminescence readings from the Cell Titer Glo assay were normalized to the DMSO treated cells and analyzed using the GraphPad Prism software with sigmoidal curve fitting to obtain EC50s. The minimum significant ratio (MSR) was determined to evaluate assay reproducibility (Eastwood et al., (2006) J Biomol Screen, 11: 253-261).

BRD4 (BDII_E352-M457) = target: T2, BRD4 (BDII_E352-M457) (Homo sapiens, UniProt O60885); assay: TR-FRET bromodomain binding assay, second bromodomain of BRD4; conditions: His-tagged BD2, 30 nM Alexa647 probe; TR-FRET protocol A-E given per row
T2 construct: proliferation; Protocol; made in house
Summary of the method: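 His-tagged BRD4 BD2 ([…]) competed against an Alexa647-labelled BET-inhibitor probe in TR-FRET. Buffer was 20 mM sodium phosphate pH 6.0, 50 mM NaCl, 1 mM EDTA, 0.01% Triton X-100, 1 mM DTT, with method D DMSO series of 2.5 mM–800 nM (stock range). IC50 from 4-parameter fit, Ki from probe Kd and concentration.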

Ki (BRD4 (BDI_K57-E168)) [nM] | EC50 [1] [nM] | Ki (BRD4 (BDII_E352-M457)) [nM] | SMILES
93 | 578 | 145 | CN1CCN(Cc2ccc(Oc3ccc(F)cc3F)c(-c3cn(C)c4c(=O)[nH]ccc34)c2)CC1 [Example 116, 3-{2-(2,4-difluorophenoxy)-5-[(4-methylpiperazin-1-yl)methyl]phenyl}-1-methyl-1,6-dihydro-7H-pyrrolo[2,3-c]pyridin-7-one]
36 | 84 | 57 | Cn1cc(-c2cc(S(C)(=O)=O)ccc2OCC(F)(F)C(F)(F)F)c2cc[nH]c(=O)c21 [Example 64, 1-methyl-3-[5-(methylsulfonyl)-2-(2,2,3,3,3-pentafluoropropoxy)phenyl]-1,6-dihydro-7H-pyrrolo[2,3-c]pyridin-7-one]
6.9 | 15 | 11 | Cn1cc(-c2cc(CS(N)(=O)=O)ccc2Oc2ccc(F)cc2F)c2cc[nH]c(=O)c21 [Example 96, 1-[4-(2,4-difluorophenoxy)-3-(1-methyl-7-oxo-6,7-dihydro-1H-pyrrolo[2,3-c]pyridin-3-yl)phenyl]methanesulfonamide]
31 | 338 | 67 | CCS(=O)(=O)NCc1ccc(Oc2ccc(F)cc2F)c(-c2cn(C)c3c(=O)[nH]ccc23)c1 [Example 106, N-[4-(2,4-difluorophenoxy)-3-(1-methyl-7-oxo-6,7-dihydro-1H-pyrrolo[2,3-c]pyridin-3-yl)benzyl]ethanesulfonamide]
57 | 268 | 67 | Cn1cc(-c2cc(S(C)(=O)=O)ccc2OCCC2CC2)c2c(Cl)c[nH]c(=O)c21 [Example 109, 4-chloro-3-[2-(2-cyclopropylethoxy)-5-(methylsulfonyl)phenyl]-1-methyl-1,6-dihydro-7H-pyrrolo[2,3-c]pyridin-7-one]
10.5 | – | 68.5 | CCS(=O)(=O)Nc1ccc(Oc2ccc(F)cc2F)c(-c2cn(C)c3c(=O)[nH]c(C(=O)N4CCC(O)CC4)cc23)c1 [Example 194, N-[4-(2,4-difluorophenoxy)-3-{5-[(4-hydroxypiperidin-1-yl)carbonyl]-1-methyl-7-oxo-6,7-dihydro-1H-pyrrolo[2,3-c]pyridin-3-yl]phenyl}ethanesulfonamide]
> 238 | – | 79.1 | Cc1ccc(CC(=O)Nc2ccc(Oc3ccc(F)cc3F)c(-c3cn(C)c4c(=O)[nH]ccc34)c2)cn1 [Example 161, N-[4-(2,4-difluorophenoxy)-3-(1-methyl-7-oxo-6,7-dihydro-1H-pyrrolo[2,3-c]pyridin-3-yl)phenyl]-2-(6-methylpyridin-3-yl)acetamide]
90 | – | 435 | Cn1cc(-c2cc(S(C)(=O)=O)ccc2OC2Cc3ccccc3C2)c2cc[nH]c(=O)c21 [Example 38, 3-[2-(2,3-dihydro-1H-inden-2-yloxy)-5-(methylsulfonyl)phenyl]-1-methyl-1,6-dihydro-7H-pyrrolo[2,3-c]pyridin-7-one]
174 | – | 296 | Cn1cc(-c2cc(F)cnc2Nc2ccc(F)cc2)c2cc[nH]c(=O)c21 [Example 145, 3-{5-fluoro-2-[(4-fluorophenyl)amino]pyridin-3-yl}-1-methyl-1,6-dihydro-7H-pyrrolo[2,3-c]pyridin-7-one]
1050 | – | 1050 | Cn1cc(-c2cc(CNC3CCNCC3)ccc2Oc2ccc(F)cc2F)c2cc[nH]c(=O)c21 [Example 112, 3-{2-(2,4-difluorophenoxy)-5-[(piperidin-4-ylamino)methyl]phenyl}-1-methyl-1,6-dihydro-7H-pyrrolo[2,3-c]pyridin-7-one]
76.4 | – | 153 | Cn1cc(-c2cc(NC(=O)Cc3noc4ccccc34)ccc2Oc2ccc(F)cc2F)c2cc[nH]c(=O)c21 [Example 158, 2-(1,2-benzoxazol-3-yl)-N-[4-(2,4-difluorophenoxy)-3-(1-methyl-7-oxo-6,7-dihydro-1H-pyrrolo[2,3-c]pyridin-3-yl)phenyl]acetamide]
484 | – | 619 | Cn1cc(-c2cc(CS(C)(=O)=O)ccc2Oc2ccc(F)cc2F)c2cc(-c3cc(CS(C)(=O)=O)ccc3Oc3ccc(F)cc3F)[nH]c(=O)c21 [Example 93, 3,5-bis{2-(2,4-difluorophenoxy)-5-[(methylsulfonyl)methyl]phenyl}-1-methyl-1,6-dihydro-7H-pyrrolo[2,3-c]pyridin-7-one]
6.2 | – | 13 | Cn1cc(-c2cc(NS(C)(=O)=O)ccc2Oc2ccc(F)cc2F)c2cc[nH]c(=O)c21 [Example 2, N-[4-(2,4-difluorophenoxy)-3-(1-methyl-7-oxo-6,7-dihydro-1H-pyrrolo[2,3-c]pyridin-3-yl)phenyl]methanesulfonamide]
66 | – | 49 | CCS(=O)(=O)c1ccc(Oc2ccc(Cl)cc2Cl)c(-c2cn(C)c3c(=O)[nH]ccc23)c1 [Example 82, 3-[2-(2,4-dichlorophenoxy)-5-(ethylsulfonyl)phenyl]-1-methyl-1,6-dihydro-7H-pyrrolo[2,3-c]pyridin-7-one]
321 | – | 293 | Cn1cc(-c2cc(NC(=O)CCCOc3ccccc3)ccc2Oc2ccc(F)cc2F)c2cc[nH]c(=O)c21 [Example 153, N-[4-(2,4-difluorophenoxy)-3-(1-methyl-7-oxo-6,7-dihydro-1H-pyrrolo[2,3-c]pyridin-3-yl)phenyl]-4-phenoxybutanamide]
59.4 | – | 134 | CC(C)CCC(=O)Nc1ccc(Oc2ccc(F)cc2F)c(-c2cn(C)c3c(=O)[nH]ccc23)c1 [Example 147, N-[4-(2,4-difluorophenoxy)-3-(1-methyl-7-oxo-6,7-dihydro-1H-pyrrolo[2,3-c]pyridin-3-yl)phenyl]-4-methylpentanamide]
870 | – | 2310 | Cn1cc(-c2ccccc2NCC2CC2)c2cc[nH]c(=O)c21 [Example 142, 3-{2-[(cyclopropylmethyl)amino]phenyl}-1-methyl-1,6-dihydro-7H-pyrrolo[2,3-c]pyridin-7-one]
598 | – | > 920 | Cn1cc(-c2cc(NC(=O)c3ccc(COc4ccccc4)cc3)ccc2Oc2ccc(F)cc2F)c2cc[nH]c(=O)c21 [Example 156, N-[4-(2,4-difluorophenoxy)-3-(1-methyl-7-oxo-6,7-dihydro-1H-pyrrolo[2,3-c]pyridin-3-yl)phenyl]-4-(phenoxymethyl)benzamide]
52 | – | 99 | Cn1cc(-c2cc(S(C)(=O)=O)ccc2OCCc2ccccc2)c2cc[nH]c(=O)c21 [Example 37, 1-methyl-3-[5-(methylsulfonyl)-2-(2-phenylethoxy)phenyl]-1,6-dihydro-7H-pyrrolo[2,3-c]pyridin-7-one]
386 | – | 1200 | COc1ccc(Oc2cccc(CNc3ccc(Oc4ccc(F)cc4F)c(-c4cn(C)c5c(=O)[nH]ccc45)c3)c2)cc1 [Example 168, 3-[2-(2,4-difluorophenoxy)-5-{[3-(4-methoxyphenoxy)benzyl]amino}phenyl]-1-methyl-1,6-dihydro-7H-pyrrolo[2,3-c]pyridin-7-one]
168 | – | 1870 | Cc1noc(C)c1-c1cc2c(-c3cc(CS(C)(=O)=O)ccc3Oc3ccc(F)cc3F)cn(C)c2c(=O)[nH]1 [Example 94, 3-{2-(2,4-difluorophenoxy)-5-[(methylsulfonyl)methyl]phenyl}-5-(3,5-dimethyl-1,2-oxazol-4-yl)-1-methyl-1,6-dihydro-7H-pyrrolo[2,3-c]pyridin-7-one]
1090 | – | 1320 | Cn1cc(-c2cc(CN)ccc2Oc2ccc(F)cc2F)c2cc[nH]c(=O)c21 [Example 136, 3-[5-(aminomethyl)-2-(2,4-difluorophenoxy)phenyl]-1-methyl-1,6-dihydro-7H-pyrrolo[2,3-c]pyridin-7-one]
62 | – | 139 | CCS(=O)(=O)c1ccc(Oc2ccc(C(F)(F)F)cc2)c(-c2cn(C)c3c(=O)[nH]ccc23)c1 [Example 77, 3-{5-(ethylsulfonyl)-2-[4-(trifluoromethyl)phenoxy]phenyl}-1-methyl-1,6-dihydro-7H-pyrrolo[2,3-c]pyridin-7-one]
357 | – | 291 | Cn1cc(-c2cc(S(C)(=O)=O)ccc2Oc2ccc(C(C)(C)C)cc2)c2cc[nH]c(=O)c21 [Example 62, 3-[2-(4-tert-butylphenoxy)-5-(methylsulfonyl)phenyl]-1-methyl-1,6-dihydro-7H-pyrrolo[2,3-c]pyridin-7-one]
